Source: ChEMBL document CHEMBL1135882, “Synthesis and biological evaluation of 2-substituted 3beta-tolyltropane derivatives at dopamine, serotonin, and norepinephrine transporters” (J Med Chem, 2002)

How the values were obtained:
[1] = molecular target: Sodium-dependent dopamine transporter (Rattus norvegicus, UniProt P23977); experiment: Affinity for dopamine transporter was assessed by the ability to displace [3H]WIN-35428 from rat caudate-putamen tissue; format: tissue-based
Rattus norvegicus [2] = species: Rattus norvegicus; experiment: Ability to inhibit [3H]dopamine uptake was measured in a chopped tissue assay; format: functional, organism-based
Rattus norvegicus [3] = experiment: Percent maximum effect at 39.0 mmol/kg dose that causes compound-appropriate response in rats, trained to discriminate cocaine; format: functional
[4] = molecular target: Norepinephrine transporter (Rattus norvegicus, UniProt Q9WTR4); experiment: Binding affinity for Norepinephrine transporter is assessed from the ability to displace [3H]nisoxetine from rat frontal cortex; format: tissue-based
Rattus norvegicus [5] = experiment: Percent maximum effect at 27.0 mmol/kg dose that causes compound-appropriate response in rats, trained to discriminate cocaine; format: functional
Rattus norvegicus [6] = species: Rattus norvegicus; experiment: Effective dose that causes 50 percent of compound-appropriate response in rats, trained to discriminate cocaine; Value ranges from (17.1-1.22)x10E5, effect is nonsignificant at this dose; format: functional
[7] = molecular target: Sodium-dependent serotonin transporter (Rattus norvegicus, UniProt P31652); experiment: Binding affinity for serotonin transporter is assessed from the ability to displace [3H]citalopram from rat brain.
Rattus norvegicus [8] = experiment: Percent maximum effect at 45.7 mmol/kg dose that causes compound-appropriate response in rats, trained to discriminate cocaine; format: functional
Rattus norvegicus [9] = experiment: Percent maximum effect at 37.7 mmol/kg dose that causes compound-appropriate response in rats, trained to discriminate cocaine; format: functional
Rattus norvegicus [10] = species: Rattus norvegicus; experiment: Effective dose that causes 50 percent of compound-appropriate response in rats, trained to discriminate cocaine; Value ranges from (22-51.4), effect is nonsignificant at this dose; format: functional
Rattus norvegicus [11] = experiment: Percent maximum effect at 2.69 mmol/kg dose that causes compound-appropriate response in rats, trained to discriminate cocaine; format: functional
Rattus norvegicus [12] = species: Rattus norvegicus; experiment: Effective dose that causes 50 percent of compound-appropriate response in rats, trained to discriminate cocaine; Value ranges from (9.07-256), effect is nonsignificant at this dose; format: functional
Rattus norvegicus [13] = species: Rattus norvegicus; experiment: Effective dose that causes 50 percent of compound-appropriate response in rats, trained to discriminate cocaine; NS means Nonsignificant linear regression.; format: functional, organism-based
Rattus norvegicus [14] = experiment: Percent maximum effect at 54.9 mmol/kg dose that causes compound-appropriate response in rats, trained to discriminate cocaine; format: functional
Rattus norvegicus [15] = experiment: Percent maximum effect at 89.3 mmol/kg dose that causes compound-appropriate response in rats, trained to discriminate cocaine; format: functional

Chain of Sodium-dependent serotonin transporter (P31652 whole entry): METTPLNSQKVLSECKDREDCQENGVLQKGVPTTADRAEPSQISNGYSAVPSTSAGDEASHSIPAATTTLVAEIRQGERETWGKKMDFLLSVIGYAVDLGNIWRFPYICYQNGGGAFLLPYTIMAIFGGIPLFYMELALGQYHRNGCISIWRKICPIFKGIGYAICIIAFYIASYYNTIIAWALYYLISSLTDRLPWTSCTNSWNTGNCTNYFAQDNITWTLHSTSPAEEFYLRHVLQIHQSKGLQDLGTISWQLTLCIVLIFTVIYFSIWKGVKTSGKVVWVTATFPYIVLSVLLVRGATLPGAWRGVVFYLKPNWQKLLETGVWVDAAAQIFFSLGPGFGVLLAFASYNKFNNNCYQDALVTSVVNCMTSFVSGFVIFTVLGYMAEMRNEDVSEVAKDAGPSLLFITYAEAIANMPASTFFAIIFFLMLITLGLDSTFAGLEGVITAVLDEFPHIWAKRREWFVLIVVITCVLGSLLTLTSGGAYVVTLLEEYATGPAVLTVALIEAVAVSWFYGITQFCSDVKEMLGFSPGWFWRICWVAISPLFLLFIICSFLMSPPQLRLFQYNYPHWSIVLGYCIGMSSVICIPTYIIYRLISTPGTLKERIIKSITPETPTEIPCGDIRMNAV
Chain of Norepinephrine transporter (Q9WTR4 whole entry): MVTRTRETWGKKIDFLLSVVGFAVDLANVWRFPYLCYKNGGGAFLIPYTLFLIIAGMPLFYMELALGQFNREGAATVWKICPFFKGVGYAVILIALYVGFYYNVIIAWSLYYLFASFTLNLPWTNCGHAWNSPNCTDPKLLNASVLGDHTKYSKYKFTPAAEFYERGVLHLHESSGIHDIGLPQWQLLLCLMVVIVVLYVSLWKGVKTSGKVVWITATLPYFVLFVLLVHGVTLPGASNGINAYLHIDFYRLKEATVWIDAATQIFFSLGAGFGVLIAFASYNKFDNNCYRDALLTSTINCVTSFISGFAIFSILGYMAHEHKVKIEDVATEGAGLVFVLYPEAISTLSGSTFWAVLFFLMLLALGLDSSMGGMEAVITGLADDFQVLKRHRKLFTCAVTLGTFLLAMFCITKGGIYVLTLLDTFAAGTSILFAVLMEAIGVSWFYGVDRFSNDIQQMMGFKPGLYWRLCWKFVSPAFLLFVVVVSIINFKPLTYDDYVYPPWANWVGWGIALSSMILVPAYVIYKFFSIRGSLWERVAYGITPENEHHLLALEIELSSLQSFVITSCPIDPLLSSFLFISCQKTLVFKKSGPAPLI
Chain of Sodium-dependent dopamine transporter (P23977 whole entry): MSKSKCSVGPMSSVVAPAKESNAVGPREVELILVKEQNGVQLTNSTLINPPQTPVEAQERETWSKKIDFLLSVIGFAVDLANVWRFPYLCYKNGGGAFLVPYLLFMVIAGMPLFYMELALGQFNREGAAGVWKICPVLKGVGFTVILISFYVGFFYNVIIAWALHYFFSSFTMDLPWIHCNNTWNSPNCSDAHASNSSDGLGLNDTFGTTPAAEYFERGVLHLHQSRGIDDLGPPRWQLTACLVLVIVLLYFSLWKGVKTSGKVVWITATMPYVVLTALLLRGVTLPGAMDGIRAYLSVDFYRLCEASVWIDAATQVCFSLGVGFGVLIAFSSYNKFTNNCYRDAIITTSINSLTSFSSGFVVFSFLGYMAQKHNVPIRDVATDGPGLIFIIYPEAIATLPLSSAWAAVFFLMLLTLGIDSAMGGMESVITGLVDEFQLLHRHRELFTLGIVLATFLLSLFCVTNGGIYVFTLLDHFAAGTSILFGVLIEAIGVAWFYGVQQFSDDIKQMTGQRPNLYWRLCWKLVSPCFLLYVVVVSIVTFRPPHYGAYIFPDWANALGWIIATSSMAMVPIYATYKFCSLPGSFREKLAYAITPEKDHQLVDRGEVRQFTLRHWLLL

| SMILES | Ki [1] [nM] | IC50 (Rattus norvegicus [2]) [nM] | Ki [4] [nM] | Ki [7] [nM] | further results |
| --- | --- | --- | --- | --- | --- |
| Cc1ccc([C@H]2C[C@H]3CC[C@H]([C@@H]2[C@@H](O)c2ccc(C)cc2)N3C)cc1 | 25 | 58 |  |  |  |
| Cc1ccc(CC2C(c3ccc(C)cc3)C[C@H]3CCC2N3C)cc1 (some centres undefined) | 11 | 16 | 271 |  | Max effect (Rattus norvegicus [3]): 82.8% |
| Cc1ccc(C(=O)C2C(c3ccc(C)cc3)CC3CCC2N3C)cc1 (centres undefined) | 17 | 82 |  |  | Max effect (Rattus norvegicus [5]): 100% |
| Cc1ccc([C@H]2C[C@H]3CC[C@H]([C@H]2[C@@H](O)c2ccc(C)cc2)N3C)cc1 | 14 | 144 | 464 | 66 | ED50 (Rattus norvegicus [6]): 61600 µmol/kg; Max effect (Rattus norvegicus [8]): 97.9% |
| Cc1ccc([C@@H](O)[C@@H]2C3CC[C@H](C[C@@H]2c2ccc(C)cc2)N3C)cc1 | 85 | 107 | 214 | 70 | Max effect (Rattus norvegicus [9]): 66.7%; ED50 (Rattus norvegicus [10]): 31400 µmol/kg |
| Cc1ccc(C2C[C@H]3CCC([C@@H]2CO)N3C)cc1 (some centres undefined) | 3490 | 4040 | 16800 | 16000 | Max effect (Rattus norvegicus [11]): 2.96%; ED50 (Rattus norvegicus [12]): 20600 µmol/kg; NS (Rattus norvegicus [13]): Nonsignificant linear regression |
| Cc1ccc(C2C[C@H]3CCC(C2CCCO)N3C)cc1 (some centres undefined) | 136 | 266 |  |  | Max effect (Rattus norvegicus [14]): 93.9% |
| COC(=O)/C=C/C1C(c2ccc(C)cc2)C[C@H]2CCC1N2C (some centres undefined) | 123 | 311 |  |  | Max effect (Rattus norvegicus [15]): 69.9% |
